System: P12-Ichikawa
Assay: cell viability relative to DMSO control; higher = less cytotoxic
Details: 48 h
Summary of the method: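 Viability, reported as a per-plate percentage of DMSO wells with cell-free wells as background, came from CellTiter-Glo One luminescence. Reading took place after 48 h at 37°C. Before that, NOMO1 or SEM (500 cells/well) or P12-Ichikawa (1000 cells/well) leukemia cells, adapted for at least four passages in each medium, were seeded in 1536-well plates (5 μl) and pin-dosed with library compounds in DMSO, 47 μM to 0.79 nM over 11 threefold points.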

[1] = HPLM + 10% dialyzed FBS, 0.000781 µM
[2] = HPLM + 10% dialyzed FBS, 0.00234 µM
[3] = HPLM + 10% dialyzed FBS, 0.00702 µM
[4] = HPLM + 10% dialyzed FBS, 0.0211 µM
[5] = HPLM + 10% dialyzed FBS, 0.0632 µM
[6] = HPLM + 10% dialyzed FBS, 0.19 µM
[7] = HPLM + 10% dialyzed FBS, 0.569 µM
[8] = HPLM + 10% dialyzed FBS, 1.71 µM
[9] = HPLM + 10% dialyzed FBS, 5.12 µM
[10] = HPLM + 10% dialyzed FBS, 15.4 µM
[11] = HPLM + 10% dialyzed FBS, 46.1 µM
[12] = RPMI 5 mM glucose + 10% FBS, 0.000781 µM
[13] = RPMI 5 mM glucose + 10% FBS, 0.00234 µM
[14] = RPMI 5 mM glucose + 10% FBS, 0.00702 µM
[15] = RPMI 5 mM glucose + 10% FBS, 0.0211 µM
[16] = RPMI 5 mM glucose + 10% FBS, 0.0632 µM
[17] = RPMI 5 mM glucose + 10% FBS, 0.19 µM
[18] = RPMI 5 mM glucose + 10% FBS, 0.569 µM
[19] = RPMI 5 mM glucose + 10% FBS, 1.71 µM
[20] = RPMI 5 mM glucose + 10% FBS, 5.12 µM
[21] = RPMI 5 mM glucose + 10% FBS, 15.4 µM
[22] = RPMI 5 mM glucose + 10% FBS, 46.1 µM
[23] = RPMI 5 mM glucose + 10% dialyzed FBS, 0.000781 µM
[24] = RPMI 5 mM glucose + 10% dialyzed FBS, 0.00234 µM
[25] = RPMI 5 mM glucose + 10% dialyzed FBS, 0.00702 µM
[26] = RPMI 5 mM glucose + 10% dialyzed FBS, 0.0211 µM
[27] = RPMI 5 mM glucose + 10% dialyzed FBS, 0.0632 µM
[28] = RPMI 5 mM glucose + 10% dialyzed FBS, 0.19 µM
[29] = RPMI 5 mM glucose + 10% dialyzed FBS, 0.569 µM
[30] = RPMI 5 mM glucose + 10% dialyzed FBS, 1.71 µM
[31] = RPMI 5 mM glucose + 10% dialyzed FBS, 5.12 µM
[32] = RPMI 5 mM glucose + 10% dialyzed FBS, 15.4 µM
[33] = RPMI 5 mM glucose + 10% dialyzed FBS, 46.1 µM

Row | SMILES | cell viability [1] [%] | cell viability [2] [%] | cell viability [3] [%] | cell viability [4] [%] | cell viability [5] [%] | cell viability [6] [%] | cell viability [7] [%] | cell viability [8] [%] | cell viability [9] [%] | cell viability [10] [%] | cell viability [11] [%] | cell viability [12] [%] | cell viability [13] [%] | cell viability [14] [%] | cell viability [15] [%] | cell viability [16] [%] | cell viability [17] [%] | cell viability [18] [%] | cell viability [19] [%] | cell viability [20] [%] | cell viability [21] [%] | cell viability [22] [%] | cell viability [23] [%] | cell viability [24] [%] | cell viability [25] [%] | cell viability [26] [%] | cell viability [27] [%] | cell viability [28] [%] | cell viability [29] [%] | cell viability [30] [%] | cell viability [31] [%] | cell viability [32] [%] | cell viability [33] [%]
1 | COc1cc2nc(N(C)CCCNC(=O)C3CCCO3)nc(N)c2cc1OC (centres undefined) | 78.4 | 88.7 | 80.9 | 92.3 | 88.8 | 87.6 | 86.2 | 82.3 | 88.3 | 92.6 | 94.1 | 82.3 | 87.4 | 89.9 | 91 | 92.6 | 91.3 | 84.6 | 87.8 | 91.6 | 93.9 | 101 | 70.4 | 81.7 | 76.8 | 78.9 | 82.9 | 83.4 | 79.5 | 82.7 | 76.6 | 87.8 | 80.7
2 | CC(C)n1nc(-c2cc3cc(O)ccc3[nH]2)c2c(N)ncnc21 | 109 | 107 | 112 | 106 | 99.4 | 90 | 73 | 72.7 | 64.9 | 47.4 | 36.8 | 100 | 109 | 110 | 95.3 | 92.8 | 79.5 | 66.5 | 56.9 | 52.5 | 35.4 | 17.5 | 105 | 116 | 111 | 118 | 108 | 86.4 | 73.6 | 66.6 | 48.6 | 30.8 | 20.5
3 | N=C(CCSCc1csc(N=C(N)N)n1)N[S+](N)(=O)[O-] | 95.2 | 102 | 103 | 95.7 | 108 | 98.2 | 106 | 103 | 106 | 108 | 102 | 93.1 | 97.4 | 97.3 | 94 | 96.2 | 93.2 | 97.6 | 95.3 | 95.3 | 87.3 | 99.1 | 80.3 | 89.1 | 98.3 | 91 | 95.1 | 94.9 | 95 | 88.7 | 93.5 | 87.1 | 83.2

— the supplement of paper PMC11451515
